We go through 38 compounds from paper PMC10826043 (BMC Complementary Medicine and Therapies, 2024).

The target of one assay is T1, α-amylase from porcine pancreas (Sus scrofa, UniProt P00690).
T1 construct: α-amylase from porcine pancreas (A3176); purchased Sigma-Aldrich (Germany) A3176; host or cells: porcine pancreas (tissue-derived)
T1 sequence (P00690 16-511): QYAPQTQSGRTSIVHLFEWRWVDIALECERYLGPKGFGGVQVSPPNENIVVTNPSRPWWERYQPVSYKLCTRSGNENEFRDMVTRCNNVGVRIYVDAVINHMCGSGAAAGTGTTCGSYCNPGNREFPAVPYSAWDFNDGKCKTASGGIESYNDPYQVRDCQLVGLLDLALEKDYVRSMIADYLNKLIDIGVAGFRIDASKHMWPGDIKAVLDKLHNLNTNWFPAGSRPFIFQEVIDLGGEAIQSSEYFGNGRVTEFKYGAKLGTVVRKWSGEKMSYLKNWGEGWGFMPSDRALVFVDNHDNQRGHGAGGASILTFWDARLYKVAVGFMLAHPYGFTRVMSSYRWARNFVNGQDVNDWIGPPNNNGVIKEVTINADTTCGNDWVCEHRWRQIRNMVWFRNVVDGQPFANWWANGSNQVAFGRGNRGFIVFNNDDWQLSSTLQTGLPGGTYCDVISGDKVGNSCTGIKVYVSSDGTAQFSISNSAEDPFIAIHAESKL
The assay can be described thus: In vitro pancreatic α-amylase inhibitory assay (starch/DNS, 540 nm). Particulars: 1% starch, pH 6.9, 25 °C, read-out: IC50 (α-amylase inhibition). The format is biochemical. The method, then:
Analytical purity grade solvents were used throughout the study.
With reference to the established technique, the assay was carried out quantitatively with minor adjustments. Initially, 500µL test solution was preincubated with 500µL α-amylase solution (0.55 unit/mL) at 25°C for 10 min. The α-amylase was prepared in a buffer solution (0.02M sodium phosphate pH 6.9 with 0.006M NaCl). Afterwards, 500µL of 1% w/v starch in buffer solution was mixed in and left to incubate for 10 min at 25°C. To bring the reaction to a halt, 1mL dinitrosalicylic acid (DNS) was introduced and the mixture was placed in a boiling water bath for 3.5 min. After cooling to room temperature, the mixture was then diluted using 10mL distilled water and absorbance was measured using a Laxco spectrophotometer (α1502, Laxco Inc., USA) at λ 540nm. Blanks used throughout the experiment were made by adding pure buffer instead of α-amylase solution. […] To calculate the pancreatic α-amylase inhibitory activity, the following equation was used: %Inhibtion=100×1-Abs540nmExtract-Abs540nmPositivecontrol/Abs540nmNegativecontrol-Abs540nmPositivecontrol
As a reminder, the IC50 is the concentration that inhibits the measured activity by half. In the case of `Oc1cc(O)c2c(c1)OC(c1ccc(O)c(O)c1)C(O)C2` (stereo not shown) [Catechin], the IC50 is 5040 ± 40 µM.

Turning to `O=c1cc(-c2ccc(O)c(O)c2)oc2cc(O)cc(O)c12` [Luteolin], the IC50 was 6320 ± 30 µM.

For the compound `COc1cc(O)c2c(=O)c(O)c(-c3ccc(O)c(O)c3)oc2c1` [Quercetin-7-methylether, quercetin-7-methyl ether], the IC50 worked out at 5010 ± 70 µM.

`O=c1c(O)c(-c2cc(O)c(O)c(O)c2)oc2cc(O)cc(O)c12` [Myricetin]: the IC50 came to 4910 ± 60 µM.

As to `O=C(/C=C/c1ccc(O)c(O)c1)O[C@H](Cc1ccc(O)c(O)c1)C(=O)O` [Rosmarinic Acid, rosmarinic acid], the IC50 was determined as 7000 ± 90 µM.

For `COc1c(-c2ccc(O)c(O)c2)oc2cc(O)cc(O)c2c1=O` [Quercetin-3-methylether, quercetin-3-methyl ether], the IC50 was found to be 6370 ± 110 µM.

In the case of `O=C(/C=C/c1ccc(O)c(O)c1)O[C@@H]1C[C@](O)(C(=O)O)C[C@@H](O)[C@H]1O` [Chlorogenic Acid, chlorogenic acid], the IC50 amounted to 7390 ± 220 µM.

Take `OCC1=C[C@@H](O)[C@@H]2C=CO[C@@H](O[C@@H]3O[C@H](CO)[C@@H](O)[C@H](O)[C@H]3O)[C@H]12` [Aucubin]: the IC50 was determined as 2370 µM.

The next assay addresses α-amylase.
Test: not given
Particulars: validation set, supplement ref [3]; cited from earlier work.
Turning to `O=c1cc(-c2ccc(O)c(O)c2)oc2cc(O)cc(O)c12` [Luteolin], the IC50 was 14.6 ± 0.74 µM.

Take `O=c1cc(-c2ccc(O)cc2)oc2cc(O)cc(O)c12` [Apigenin]: the IC50 was 12.2 ± 2.14 µM.

On to `O=c1cc(-c2ccc(O)c(O)c2)oc2cc(O)ccc12` [7, 3', 4'-trihydroxyflavone], for which the IC50 is 16.3 ± 0.52 µM.

`O=c1c(O)c(-c2ccc(O)c(O)c2)oc2cc(OC3OC(CO)C(O)C(O)C3O)c(O)c(O)c12` [Quercetagetin-7-O-β-D-glucopyranoside]: the IC50 is 8.04 ± 0.69 µM.

For `COc1c(-c2ccc(O)c(O)c2)oc2cc(O)cc(O)c2c1=O` [Quercetin-3-methylether, quercetin-3-methyl ether], the IC50 is 13.6 ± 2.04 µM.

As for `COc1ccc(-c2oc3cc(O)cc(O)c3c(=O)c2O)cc1` [Kaempferide], the IC50 was 22.9 ± 3.17 µM.

Take `Oc1cc(O)c2c(c1)O[C@H](c1ccc(O)c(O)c1)[C@H](O)C2` [L-epicatechin]: the IC50 was 31.5 ± 2.21 µM.

Take `O=C1C[C@@H](c2ccc(O)cc2)Oc2cc(O)cc(O)c21` [Naringenin]: the IC50 was 21.9 ± 3.21 µM.

Take `O=C(O)C1OC(Oc2cc(O)c3c(=O)cc(-c4ccc(O)cc4)oc3c2)C(O)C(O)C1O` [Apigenin-7-O-β-D-glucopyranuronide]: the IC50 is 10.4 ± 2.51 µM.

The same assay, now with this note: validation set, supplement ref [4]; cited from earlier work.
`O=C(O[C@@H]1Cc2c(O)cc(O)cc2O[C@@H]1c1cc(O)c(O)c(O)c1)c1cc(O)c(O)c(O)c1` [Epigallocatechin gallate]: the IC50 was 11.5 ± 0.02 µM.

The assay is the same for the next values; noted with them: validation set, supplement ref [5]; cited from earlier work.
Regarding `OC[C@H]1O[C@@H](Oc2cc3c(O[C@@H]4O[C@H](CO)[C@@H](O)[C@H](O)[C@H]4O)cc(O)cc3[o+]c2-c2ccc(O)c(O)c2)[C@H](O)[C@@H](O)[C@@H]1O` [Cyanidin-3,5-glucoside], the IC50 was 40 ± 7 µM.

With `COc1cc(-c2[o+]c3cc(O)cc(O)c3cc2O[C@@H]2O[C@H](CO)[C@@H](O)[C@H](O)[C@H]2O)ccc1O` [Peonidin-3-glucoside], the IC50 is 75 ± 7 µM.

For `OC[C@H]1O[C@@H](Oc2cc3c(O)cc(O)cc3[o+]c2-c2ccc(O)c(O)c2)[C@H](O)[C@@H](O)[C@@H]1O` [Cyanidin-3-glucoside], the IC50 was 24 ± 3 µM.

The assay is the same for the next values; noted with them: validation set, supplement ref [6]; cited from earlier work.
On to `C[C@@H]1O[C@@H](OC[C@H]2O[C@@H](Oc3cc4c(O)cc(O)cc4[o+]c3-c3ccc(O)c(O)c3)[C@H](O)[C@@H](O)[C@@H]2O)[C@H](O)[C@H](O)[C@H]1O` [Cyanidin-3-rutinoside], for which the IC50 is 24.4 ± 0.1 µM.

The assay is the same for the next values; noted with them: validation set, supplement ref [7]; cited from earlier work.
As to `O=C(O)c1cc(O)c(O)c(O)c1` [Gallic acid], the IC50 was 27.8 ± 2.06 µM.

The assay is the same for the next values; noted with them: validation set, supplement ref [8]; cited from earlier work.
Take `O=c1cc(-c2ccc(O)c(O)c2)oc2cccc(O)c12` [5,3',4'-Trihydroxyflavone]: the IC50 is 148 ± 5 µM.

As for `O=c1c(O)c(-c2cc(O)c(O)c(O)c2)oc2cc(O)cc(O)c12` [Myricetin], the IC50 was 107 ± 6 µM.

For `O=c1c(O)c(-c2ccc(O)cc2)oc2cc(O)ccc12` [3,7,4'-Trihydroxyflavone], the IC50 was 59 ± 4 µM.

Consider `O=c1cc(-c2ccc(O)c(O)c2)oc2cc(O)c(Cl)c(O)c12` [6-Chloro-3',4',5,7-tetrahydroxyflavone], for which the IC50 was 44 ± 3 µM.

The same assay, now with this note: validation set, supplement ref [9]; cited from earlier work.
Consider `Oc1cc(O)c2c(c1)OC(c1ccc(O)c(O)c1)C(O)C2` (stereo not shown) [Catechin], for which the IC50 was 1160 ± 24 µM.

Consider `O=C(/C=C/c1ccc(O)c(O)c1)O[C@@H]1C[C@](O)(C(=O)O)C[C@@H](O)[C@H]1O` [Chlorogenic Acid, chlorogenic acid], for which the IC50 is 1050 ± 18 µM.

Staying with this assay, now noted: validation set, supplement ref [10]; cited from earlier work.
For the compound `O=C(O)c1ccc(O)c(O)c1` [Protocatechuic acid], the IC50 is 2650 ± 160 µM.

With `COc1cc(C(=O)O)ccc1O` [Vanillic acid], the IC50 was 2050 ± 10 µM.

`COc1cc(C(=O)O)cc(OC)c1O` [Syringic acid]: the IC50 is 1980 ± 10 µM.

Staying with this assay, now noted: validation set, supplement ref [11]; cited from earlier work.
On to `COc1cc(OC)c2c(c1C)O[C@H](c1ccc(O)cc1)CC2` [(2S)-4′-hydroxy-5,7-dimethoxy-8-methylflavan], for which the IC50 is 6030 ± 270 µM.

As for `Cc1c(O)cc2c(c1O)C(=O)C(Cc1ccc(O)cc1)CO2` (stereo not shown) [5,7-dihydroxy-6-methyl-3-(4′-hydroxybenzyl) chroman-4-one], the IC50 was 5990 ± 60 µM.

For `O=c1c(Cc2ccc(O)cc2)coc2cc(O)cc(O)c12` [5,7-dihydroxy-3-(4′-hydroxybenzyl) chromone], the IC50 is 2590 ± 50 µM.

Staying with this assay, now noted: validation set, supplement ref [12]; cited from earlier work.
In the case of `O=c1cc(-c2ccccc2)oc2cc(O)c(O)c(O)c12` [Baicalein], the IC50 is 11200 ± 200 µM.

For `COc1cc(-c2oc3cc(O)cc(O)c3c(=O)c2O)ccc1O` [Isorhamnetin], the IC50 is 24900 ± 427 µM.

Regarding `O=c1cc(-c2ccccc2)oc2cc(O)cc(O)c12` [Chrysin], the IC50 is 15300 ± 374 µM.

The same assay, now with this note: validation set, supplement ref [13]; cited from earlier work.
As to `O=C(O)C=Cc1ccc(O)cc1` [p-Coumaric acid], the IC50 was 34100 µM.

On to `COc1cc(C=O)ccc1O` [Vanillin], for which the IC50 is 71000 µM.

`COc1cc(/C=C/C(=O)O)cc(OC)c1O` [Sinapic acid]: the IC50 was 37000 µM.

As to `O=C(O)/C=C/c1ccc(O)c(O)c1` [Caffeic acid], the IC50 is 19400 µM.

For `O=C(O)c1ccccc1O` [Salicylic acid], the IC50 was 13000 µM.
